#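 Briefly, cells in 96-well plates were exposed to five compound concentrations for 48 h, and endpoints were estimated by linear interpolation. Here, GI50 denotes the concentration required for 50% inhibition of growth.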 Active and inactive are the calls of the source. No stated cut-off is given here; in the data, active = GI50 up to about 1.1 µM and inactive = higher.
# Legend:
# Test in all cases: DTP human tumour cell line panel, 48 h
# HL-60 = tested on: HL-60
# RPMI-8226 = tested on: RPMI-8226
# A549 = tested on: A549
# NCI-H23 = tested on: NCI-H23
# A498 = tested on: A498
# SK-MEL-28 = tested on: SK-MEL-28
# SK-OV-3 = tested on: SK-OV-3
# COLO 205 = tested on: COLO 205
# HT-29 = tested on: HT-29
# M14 = tested on: M14
# RXF 631 = tested on: RXF 631
# DMS-273 = tested on: DMS-273
# KM12 = tested on: KM12
# SNB-78 = tested on: SNB-78
# 786-0 = tested on: 786-0
# U-251 = tested on: U-251
# HCT-116 = tested on: HCT-116
# NCI-H460 = tested on: NCI-H460
# CAKI-1 = tested on: CAKI-1
# K562 = tested on: K562
# IGROV-1 = tested on: IGROV-1
# DMS-114 = tested on: DMS-114
# CCRF-CEM = tested on: CCRF-CEM
# EKVX = tested on: EKVX
# HOP-18 = tested on: HOP-18
# SNB-19 = tested on: SNB-19
# UACC-62 = tested on: UACC-62
# OVCAR-3 = tested on: OVCAR-3
# NCI-H522 = tested on: NCI-H522
# LOX IMVI = tested on: LOX IMVI
# HCC 2998 = tested on: HCC 2998
# LXFL 529 = tested on: LXFL 529
# HOP-62 = tested on: HOP-62
# XF498 = tested on: XF498
# HCT-15 = tested on: HCT-15
# SW-620 = tested on: SW-620
# SF-295 = tested on: SF-295
# SK-MEL-2 = tested on: SK-MEL-2
# UO-31 = tested on: UO-31
# Malme-3M = tested on: Malme-3M
# TK-10 = tested on: TK-10
# DLD-1 = tested on: DLD-1
# KM-20L2 = tested on: KM-20L2
# OVCAR-4 = tested on: OVCAR-4
# MOLT-4 = tested on: MOLT-4
# HOP-92 = tested on: HOP-92
# OVCAR-8 = tested on: OVCAR-8
# UACC-257 = tested on: UACC-257
# SN12C = tested on: SN12C
# ACHN = tested on: ACHN
# SF-539 = tested on: SF-539
# SF-268 = tested on: SF-268
# OVCAR-5 = tested on: OVCAR-5
# NCI-H226 = tested on: NCI-H226
# SNB-75 = tested on: SNB-75
# SK-MEL-5 = tested on: SK-MEL-5
# M19-MEL = tested on: M19-MEL
# RXF 393 = tested on: RXF 393
structure (smiles),measurement,setting,value
COC(=O)NN1C(C)=C(C(=O)OC)C2(CCOC2=O)C1(C)O (configuration not stated),GI50,HL-60,> 100 µM (inactive)
same,GI50,RPMI-8226,> 100 µM (inactive)
same,GI50,A549,> 100 µM (inactive)
same,GI50,NCI-H23,> 100 µM (inactive)
same,GI50,A498,> 100 µM (inactive)
same,GI50,SK-MEL-28,> 100 µM (inactive)
same,GI50,SK-OV-3,> 100 µM (inactive)
same,GI50,COLO 205,> 100 µM (inactive)
same,GI50,HT-29,> 100 µM (inactive)
same,GI50,M14,> 100 µM (inactive)
same,GI50,RXF 631,> 100 µM (inactive)
same,GI50,DMS-273,> 100 µM (inactive)
same,GI50,KM12,> 100 µM (inactive)
same,GI50,SNB-78,> 100 µM (inactive)
same,GI50,786-0,> 100 µM (inactive)
same,GI50,U-251,> 100 µM (inactive)
same,GI50,HCT-116,> 100 µM (inactive)
same,GI50,NCI-H460,> 100 µM (inactive)
same,GI50,CAKI-1,> 100 µM (inactive)
same,GI50,K562,> 100 µM (inactive)
same,GI50,IGROV-1,> 100 µM (inactive)
same,GI50,DMS-114,> 100 µM (inactive)
same,GI50,CCRF-CEM,> 100 µM (inactive)
same,GI50,EKVX,> 100 µM (inactive)
same,GI50,HOP-18,> 100 µM (inactive)
same,GI50,SNB-19,> 100 µM (inactive)
same,GI50,UACC-62,> 100 µM (inactive)
same,GI50,OVCAR-3,> 100 µM (inactive)
same,GI50,NCI-H522,> 100 µM (inactive)
same,GI50,LOX IMVI,> 100 µM (inactive)
same,GI50,HCC 2998,> 100 µM (inactive)
same,GI50,LXFL 529,> 100 µM (inactive)
same,GI50,HOP-62,> 100 µM (inactive)
same,GI50,XF498,> 100 µM (inactive)
same,GI50,HCT-15,> 100 µM
same,GI50,SW-620,> 100 µM (inactive)
same,GI50,SF-295,> 100 µM (inactive)
same,GI50,SK-MEL-2,> 100 µM (inactive)
same,GI50,UO-31,> 100 µM (inactive)
same,GI50,Malme-3M,> 100 µM (inactive)
same,GI50,TK-10,> 100 µM (inactive)
same,GI50,DLD-1,> 100 µM (inactive)
same,GI50,KM-20L2,> 100 µM (inactive)
same,GI50,OVCAR-4,> 100 µM (inactive)
same,GI50,MOLT-4,> 100 µM (inactive)
same,GI50,HOP-92,> 100 µM (inactive)
same,GI50,OVCAR-8,> 100 µM (inactive)
same,GI50,UACC-257,> 100 µM (inactive)
same,GI50,SN12C,> 100 µM (inactive)
same,GI50,ACHN,> 100 µM (inactive)
same,GI50,SF-539,> 100 µM (inactive)
same,GI50,SF-268,> 100 µM (inactive)
same,GI50,OVCAR-5,> 100 µM (inactive)
same,GI50,NCI-H226,> 100 µM (inactive)
O=C(O)CCN(CCCN(CCC(=O)O)CCC(=O)O)CCC(=O)O,GI50,HL-60,> 100 µM (inactive)
same,GI50,RPMI-8226,> 100 µM (inactive)
same,GI50,A549,> 100 µM (inactive)
same,GI50,NCI-H23,> 100 µM (inactive)
same,GI50,A498,> 100 µM (inactive)
same,GI50,SK-MEL-28,> 100 µM (inactive)
same,GI50,SK-OV-3,> 100 µM (inactive)
same,GI50,COLO 205,> 100 µM (inactive)
same,GI50,HT-29,> 100 µM (inactive)
same,GI50,M14,> 100 µM (inactive)
same,GI50,RXF 631,> 100 µM (inactive)
same,GI50,DMS-273,> 100 µM (inactive)
same,GI50,KM12,> 100 µM (inactive)
same,GI50,786-0,> 100 µM (inactive)
same,GI50,U-251,> 100 µM (inactive)
same,GI50,HCT-116,> 100 µM (inactive)
same,GI50,NCI-H460,> 100 µM (inactive)
same,GI50,CAKI-1,> 100 µM (inactive)
same,GI50,SNB-75,74.8 µM (inactive)
same,GI50,K562,> 100 µM (inactive)
same,GI50,IGROV-1,> 100 µM (inactive)
same,GI50,DMS-114,> 100 µM (inactive)
same,GI50,CCRF-CEM,> 100 µM (inactive)
same,GI50,EKVX,> 100 µM (inactive)
same,GI50,HOP-18,> 100 µM (inactive)
same,GI50,UACC-62,> 100 µM (inactive)
same,GI50,OVCAR-3,> 100 µM (inactive)
same,GI50,NCI-H522,> 100 µM (inactive)
same,GI50,LOX IMVI,> 100 µM (inactive)
same,GI50,HCC 2998,> 100 µM (inactive)
same,GI50,SK-MEL-5,> 100 µM (inactive)
same,GI50,LXFL 529,> 100 µM (inactive)
same,GI50,HOP-62,> 100 µM (inactive)
same,GI50,XF498,> 100 µM (inactive)
same,GI50,HCT-15,> 100 µM
same,GI50,SW-620,> 100 µM (inactive)
same,GI50,SF-295,> 100 µM (inactive)
same,GI50,SK-MEL-2,> 100 µM (inactive)
same,GI50,Malme-3M,> 100 µM (inactive)
same,GI50,TK-10,> 100 µM (inactive)
same,GI50,DLD-1,> 100 µM (inactive)
same,GI50,KM-20L2,> 100 µM (inactive)
same,GI50,OVCAR-4,> 100 µM (inactive)
same,GI50,MOLT-4,> 100 µM (inactive)
same,GI50,HOP-92,> 100 µM (inactive)
same,GI50,OVCAR-8,> 100 µM (inactive)
same,GI50,SN12C,> 100 µM (inactive)
same,GI50,M19-MEL,> 100 µM (inactive)
same,GI50,ACHN,> 100 µM (inactive)
same,GI50,SF-539,> 100 µM (inactive)
same,GI50,SF-268,> 100 µM (inactive)
same,GI50,OVCAR-5,> 100 µM (inactive)
Cc1cc2c(c(C#N)c1C)NC(=O)C(CC(=O)O)C2=O (configuration not stated),GI50,HL-60,> 100 µM (inactive)
same,GI50,RPMI-8226,> 100 µM (inactive)
same,GI50,A549,> 100 µM (inactive)
same,GI50,NCI-H23,> 100 µM (inactive)
same,GI50,A498,> 100 µM (inactive)
same,GI50,SK-MEL-28,> 100 µM (inactive)
same,GI50,SK-OV-3,> 100 µM (inactive)
same,GI50,COLO 205,> 100 µM (inactive)
same,GI50,HT-29,> 100 µM (inactive)
same,GI50,M14,> 100 µM (inactive)
same,GI50,RXF 631,> 100 µM (inactive)
same,GI50,DMS-273,> 100 µM (inactive)
same,GI50,KM12,> 100 µM (inactive)
same,GI50,SNB-78,> 100 µM (inactive)
same,GI50,786-0,> 100 µM (inactive)
same,GI50,U-251,> 100 µM (inactive)
same,GI50,HCT-116,> 100 µM (inactive)
same,GI50,NCI-H460,> 100 µM (inactive)
same,GI50,CAKI-1,> 100 µM (inactive)
same,GI50,SNB-75,> 100 µM (inactive)
same,GI50,K562,> 100 µM (inactive)
same,GI50,IGROV-1,> 100 µM (inactive)
same,GI50,DMS-114,> 100 µM (inactive)
same,GI50,CCRF-CEM,> 100 µM (inactive)
same,GI50,EKVX,> 100 µM (inactive)
same,GI50,HOP-18,> 100 µM (inactive)
same,GI50,UACC-62,> 100 µM (inactive)
same,GI50,OVCAR-3,> 100 µM (inactive)
same,GI50,LOX IMVI,> 100 µM (inactive)
same,GI50,HCC 2998,> 100 µM (inactive)
same,GI50,SK-MEL-5,> 100 µM (inactive)
same,GI50,LXFL 529,> 100 µM (inactive)
same,GI50,HOP-62,> 100 µM (inactive)
same,GI50,XF498,> 100 µM (inactive)
same,GI50,HCT-15,> 100 µM
same,GI50,SW-620,> 100 µM (inactive)
same,GI50,SF-295,> 100 µM (inactive)
same,GI50,SK-MEL-2,> 100 µM (inactive)
same,GI50,UO-31,> 100 µM (inactive)
same,GI50,Malme-3M,> 100 µM (inactive)
same,GI50,TK-10,> 100 µM (inactive)
same,GI50,DLD-1,> 100 µM (inactive)
same,GI50,KM-20L2,> 100 µM (inactive)
same,GI50,OVCAR-4,> 100 µM (inactive)
same,GI50,MOLT-4,> 100 µM (inactive)
same,GI50,HOP-92,> 100 µM (inactive)
same,GI50,OVCAR-8,> 100 µM (inactive)
same,GI50,UACC-257,> 100 µM (inactive)
same,GI50,SN12C,> 100 µM (inactive)
same,GI50,M19-MEL,> 100 µM (inactive)
same,GI50,ACHN,> 100 µM (inactive)
same,GI50,SF-539,> 100 µM (inactive)
same,GI50,SF-268,> 100 µM (inactive)
same,GI50,OVCAR-5,> 100 µM (inactive)
same,GI50,NCI-H226,> 100 µM (inactive)
same,GI50,RXF 393,> 100 µM (inactive)
